# Results reported in patent publication US10189841B2, “Purinones as ubiquitin-specific protease 1 inhibitors” (Forma Therapeutics, Inc., priority 2015, dated 2019).
# Target: USP1 (construct USP1 (I-785, GG670, 671AA)/UAF1 (I-677)-Flag) (Homo sapiens (Human), UniProt O94782, G670A/G671A)
# Assay: Ubiquitin-Rhodamine 110 assay for USP1 activity
# Format: biochemical
# Conditions: USP1/UAF1 25 pM, Ub-Rh110 25 nM, 30 min preincubation
# How it was run: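 Ub-Rh110 (25 nM, ≪Km) cleavage read at ex 485/em 535 in Tris pH 8.0, CaCl2, GSH, Prionex, Triton X-100. The screen used 10 µM compound, 100 pM USP1/UAF1 and 45 min at RT.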
# Sequence of USP1 (construct USP1 (I-785, GG670, 671AA)/UAF1 (I-677)-Flag) (O94782 whole entry G670A/G671A): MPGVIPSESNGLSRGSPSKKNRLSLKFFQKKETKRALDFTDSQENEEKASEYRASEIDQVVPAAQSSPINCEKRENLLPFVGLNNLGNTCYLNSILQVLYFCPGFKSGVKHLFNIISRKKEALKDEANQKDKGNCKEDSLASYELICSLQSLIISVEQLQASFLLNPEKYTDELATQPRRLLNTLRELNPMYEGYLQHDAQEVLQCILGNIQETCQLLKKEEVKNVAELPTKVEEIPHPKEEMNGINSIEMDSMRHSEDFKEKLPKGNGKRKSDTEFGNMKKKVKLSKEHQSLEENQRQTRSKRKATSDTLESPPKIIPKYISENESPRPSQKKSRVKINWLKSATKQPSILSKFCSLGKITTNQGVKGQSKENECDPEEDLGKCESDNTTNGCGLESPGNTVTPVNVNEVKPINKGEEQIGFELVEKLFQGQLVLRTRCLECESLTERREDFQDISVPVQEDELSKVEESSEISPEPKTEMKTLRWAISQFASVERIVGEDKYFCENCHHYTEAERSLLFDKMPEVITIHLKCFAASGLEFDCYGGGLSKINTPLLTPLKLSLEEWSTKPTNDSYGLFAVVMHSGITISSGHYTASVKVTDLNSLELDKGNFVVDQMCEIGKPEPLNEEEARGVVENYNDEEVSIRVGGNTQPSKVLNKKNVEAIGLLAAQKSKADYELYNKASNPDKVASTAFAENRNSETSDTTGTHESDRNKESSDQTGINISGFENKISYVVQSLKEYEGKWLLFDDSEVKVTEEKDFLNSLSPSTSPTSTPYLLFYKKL
# Sequence of USP1 (construct USP1 (I-785, GG670, 671AA)/UAF1 (I-677)-Flag) (Q8TAF3 whole entry partner): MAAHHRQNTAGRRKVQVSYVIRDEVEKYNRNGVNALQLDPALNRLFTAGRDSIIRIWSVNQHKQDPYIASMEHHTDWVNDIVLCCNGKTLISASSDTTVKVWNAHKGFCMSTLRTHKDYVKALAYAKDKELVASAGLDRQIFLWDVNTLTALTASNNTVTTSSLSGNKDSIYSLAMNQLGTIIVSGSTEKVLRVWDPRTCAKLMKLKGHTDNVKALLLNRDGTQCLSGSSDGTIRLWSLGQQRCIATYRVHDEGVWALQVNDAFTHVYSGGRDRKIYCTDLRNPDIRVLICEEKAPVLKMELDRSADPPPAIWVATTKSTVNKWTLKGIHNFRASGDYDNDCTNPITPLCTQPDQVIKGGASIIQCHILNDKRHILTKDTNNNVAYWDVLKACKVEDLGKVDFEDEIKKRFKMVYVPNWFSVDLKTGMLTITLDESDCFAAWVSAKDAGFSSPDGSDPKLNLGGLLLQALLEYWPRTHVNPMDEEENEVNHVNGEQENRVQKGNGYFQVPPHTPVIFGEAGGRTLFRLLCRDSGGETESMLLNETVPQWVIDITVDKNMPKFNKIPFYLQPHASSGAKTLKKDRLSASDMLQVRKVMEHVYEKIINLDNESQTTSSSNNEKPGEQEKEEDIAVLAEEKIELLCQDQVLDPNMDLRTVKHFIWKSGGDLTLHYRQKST
row,Compound,IC50
1,"CC(C)c1ccccc1-c1ncc2[nH]c(=O)n(Cc3ccc(C(=O)N(C)C(C)C)cc3)c2n1 [Compound I-375, N-isopropyl-4-((2-(2-isopropylphenyl)-8-oxo-7,8-dihydro-9H-purin-9-yl)methyl)-N-methylbenzamide]",< 50 nM
2,"CC(C)c1ccccc1-c1ncc2c(n1)n(Cc1ccc(-c3cc(N4CCOCC4)ncn3)cc1)c(=O)n2C [Compound I-263, 2-(2-isopropylphenyl)-7-methyl-9-(4-(6-morpholinopyrimidin-4-yl)benzyl)-7,9-dihydro-8H-purin-8-one]",200 to 2000 nM
3,"CC(C)c1ccccc1-c1ncc2[nH]c(=O)n(Cc3ccc(-n4ccc(N5CCOCC5)n4)cc3)c2n1 [Compound I-174, 2-(2-isopropylphenyl)-9-(4-(3-morpholino-1H-pyrazol-1-yl)benzyl)-7,9-dihydro-8H-purin-8-one]",< 50 nM
4,"Cc1scnc1-c1ccc(Cn2c(=O)n(C)c3cnc(-c4ccccc4C(C)C)nc32)cc1 [Compound I-303, 2-(2-isopropylphenyl)-7-methyl-9-(4-(5-methylthiazol-4-yl)benzyl)-7,9-dihydro-8H-purin-8-one]",< 50 nM
5,"CC(C)c1ccccc1-c1ncc2[nH]c(=O)n(Cc3ccc(C4OCC4(C)C)cc3)c2n1 (stereo not drawn) [Compound I-216, 9-(4-(3,3-dimethyloxetan-2-yl)benzyl)-2-(2-isopropylphenyl)-7,9-dihydro-8H-purin-8-one]",50 to 200 nM
6,"Cc1nnc(-c2ccc(Cn3c(=O)[nH]c4cnc(-c5ccccc5C(C)C)nc43)cc2)o1 [Compound I-150, 2-(2-isopropylphenyl)-9-(4-(5-methyl-1,3,4-oxadiazol-2-yl)benzyl)-7,9-dihydro-8H-purin-8-one]",< 50 nM
7,"CC(C)c1ccccc1-c1ncc2[nH]c(=O)n(Cc3ccc(C#N)cc3)c2n1 [Compound I-151, 4-((2-(2-isopropylphenyl)-8-oxo-7,8-dihydro-9H-purin-9-yl)methyl)benzonitrile]",200 to 2000 nM
8,"CC(C)c1ccccc1-c1ncc2[nH]c(=O)n([C@@H](C)c3ccc(-n4nccn4)cc3)c2n1 [Compound I-141, (S)-9-(1-(4-(2H-1,2,3-triazol-2-yl)phenyl)ethyl)-2-(2-isopropylphenyl)-7,9-dihydro-8H-purin-8-one]",200 to 2000 nM
9,"CC(C)c1ccccc1-c1ncc2c(n1)n(Cc1ccc(-c3nc(C(F)(F)F)n(C)n3)cc1)c(=O)n2C [Compound I-280, 2-(2-isopropylphenyl)-7-methyl-9-(4-(1-methyl-5-(trifluoromethyl)-1H-1,2,4-triazol-3-yl)benzyl)-7,9-dihydro-8H-purin-8-one]",< 50 nM
10,"Cn1cc(C(F)(F)F)nc1-c1ccc(Cn2c(=O)[nH]c3cnc(-c4cccnc4N4CCCCC4)nc32)cc1 [Compound I-326, 9-(4-(1-methyl-4-(trifluoromethyl)-1H-imidazol-2-yl)benzyl)-2-(2-(piperidin-1-yl)pyridin-3-yl)-7,9-dihydro-8H-purin-8-one]",< 50 nM
11,"CC(C)c1ncccc1-c1ncc2c(n1)n(Cc1ccc(-n3nc(C(F)(F)F)cc3N3CCOCC3)cc1)c(=O)n2C [Compound I-117, 2-(2-isopropylpyridin-3-yl)-7-methyl-9-(4-(5-morpholino-3-(trifluoromethyl)-1H-pyrazol-1-yl)benzyl)-7,9-dihydro-8H-purin-8-one]",< 50 nM
12,"CC(C)c1ccccc1-c1ncc2[nH]c(=O)n(Cc3ccc(-n4ncc5c4CNC5)cc3)c2n1 [Compound I-102, 9-(4-(5,6-dihydropyrrolo[3,4-c]pyrazol-1(4H)-yl)benzyl)-2-(2-isopropylphenyl)-7,9-dihydro-8H-purin-8-one]",200 to 2000 nM
13,"CC(C)c1ccccc1-c1ncc2[nH]c(=O)n(Cc3ccc(-n4cc(C5CCNCC5)cn4)cc3)c2n1 [Compound I-221, 2-(2-isopropylphenyl)-9-(4-(4-(piperidin-4-yl)-1H-pyrazol-1-yl)benzyl)-7,9-dihydro-8H-purin-8-one]",200 to 2000 nM
14,"CC(C)c1ccccc1-c1ncc2[nH]c(=O)n(Cc3ccc(C(=O)N4CCCC4C)cc3)c2n1 (stereo not drawn) [Compound I-390, 2-(2-isopropylphenyl)-9-(4-(2-methylpyrrolidine-1-carbonyl)benzyl)-7,9-dihydro-8H-purin-8-one]",< 50 nM
15,"CN1CCc2cccc(-c3ncc4[nH]c(=O)n(Cc5ccc(-c6nc(C(F)(F)F)cn6C)cc5)c4n3)c21 [Compound I-34, 9-(4-(1-methyl-4-(trifluoromethyl)-1H-imidazol-2-yl)benzyl)-2-(1-methylindolin-7-yl)-7,9-dihydro-8H-purin-8-one]",< 50 nM
16,"CN(C)c1ncccc1-c1ncc2[nH]c(=O)n(Cc3ccc(-c4nc(C(F)(F)F)cn4C)cc3)c2n1 [Compound I-323, 2-(2-(dimethylamino)pyridin-3-yl)-9-(4-(1-methyl-4-(trifluoromethyl)-1H-imidazol-2-yl)benzyl)-7,9-dihydro-8H-purin-8-one]",< 50 nM
17,"CC(C)c1ccccc1-c1ncc2c(n1)n(Cc1cccc(OCCCN(C)C)c1)c(=O)n2C [Compound I-245, 9-(3-(3-(dimethylamino)propoxy)benzyl)-2-(2-isopropylphenyl)-7-methyl-7,9-dihydro-8H-purin-8-one]",> 2000 nM

row,Compound,IC50
1,"Cc1cc(COc2ccc(Cn3c(=O)n(C)c4cnc(-c5ccccc5C(C)C)nc43)cc2)no1 [Compound I-235, 2-(2-isopropylphenyl)-7-methyl-9-(4-((5-methylisoxazol-3-yl)methoxy)benzyl)-7,9-dihydro-8H-purin-8-one]",200 to 2000 nM
2,"CC(C)c1ncccc1-c1ncc2[nH]c(=O)n(Cc3ccc(-n4ccc(C5CCNCC5)n4)cc3)c2n1 [Compound I-435, 2-(2-isopropylpyridin-3-yl)-9-(4-(3-(piperidin-4-yl)-1H-pyrazol-1-yl)benzyl)-7,9-dihydro-8H-purin-8-one]",> 2000 nM
3,"Cc1cc(Cl)n(-c2ccc(Cn3c(=O)[nH]c4cnc(-c5ccccc5C(C)C)nc43)cc2)n1 [Compound I-211, 9-(4-(5-chloro-3-methyl-1H-pyrazol-1-yl)benzyl)-2-(2-isopropylphenyl)-7,9-dihydro-8H-purin-8-one]",< 50 nM
4,"CC(C)c1ccccc1-c1ncc2[nH]c(=O)n(Cc3ccc(-c4cn(CCO)nn4)cc3)c2n1 [Compound I-522, 9-(4-(1-(2-Hydroxyethyl)-1H-1,2,3-triazol-4-yl)benzyl)-2-(2-isopropylphenyl)-7,9-dihydro-8H-purin-8-one]",200 to 2000 nM
5,"CC(C)c1ccccc1-c1ncc2[nH]c(=O)n(Cc3ccc(C(=O)N(C)C4CCOCC4)cc3)c2n1 [Compound I-367, 4-((2-(2-isopropylphenyl)-8-oxo-7,8-dihydro-9H-purin-9-yl)methyl)-N-methyl-N-(tetrahydro-2H-pyran-4-yl)benzamide]",50 to 200 nM
6,"CC(C)c1ccccc1-c1ncc2[nH]c(=O)n(Cc3ccc(C(=O)N4CCC(F)(F)C4)cc3)c2n1 [Compound I-392, 9-(4-(3,3-difluoropyrrolidine-1-carbonyl)benzyl)-2-(2-isopropylphenyl)-7,9-dihydro-8H-purin-8-one]",< 50 nM
7,"CC(C)c1ncccc1-c1ncc2[nH]c(=O)n(Cc3ccc(-c4nc(C(F)F)cn4C)cc3)c2n1 [Compound I-87, 9-(4-(4-(difluoromethyl)-1-methyl-1H-imidazol-2-yl)benzyl)-2-(2-isopropylpyridin-3-yl)-7,9-dihydro-8H-purin-8-one]",50 to 200 nM
8,"CC(C)c1ccccc1-c1ncc2[nH]c(=O)n(Cc3ccc(-c4cnccn4)cc3)c2n1 [Compound I-247, 2-(2-isopropylphenyl)-9-(4-(pyrazin-2-yl)benzyl)-7,9-dihydro-8H-purin-8-one]",50 to 200 nM
9,"CC(C)c1ccccc1-c1ncc2[nH]c(=O)n(Cc3ccc(-c4cn(CCN(C)C)nn4)cc3)c2n1 [Compound I-521, 9-(4-(1-(2-(Dimethylamino)ethyl)-1H-1,2,3-triazol-4-yl)benzyl)-2-(2-isopropylphenyl)-7,9-dihydro-8H-purin-8-one]",200 to 2000 nM
10,"Cc1ncccc1-c1ncc2c(n1)n(Cc1ccc(-c3nc(C(F)(F)F)cn3C)cc1)c(=O)n2C [Compound I-62, 7-methyl-9-(4-(1-methyl-4-(trifluoromethyl)-1H-imidazol-2-yl)benzyl)-2-(2-methylpyridin-3-yl)-7,9-dihydro-8H-purin-8-one]",200 to 2000 nM
11,"CC(C)c1ncccc1-c1ncc2c(n1)n(Cc1ccc(-c3nc(C(F)(F)F)cn3C)cc1)c(=O)n2C1CCOCC1 [Compound I-122, 2-(2-isopropylpyridin-3-yl)-9-(4-(1-methyl-4-(trifluoromethyl)-1H-imidazol-2-yl)benzyl)-7-(tetrahydro-2H-pyran-4-yl)-7,9-dihydro-8H-purin-8-one]",200 to 2000 nM
12,"CC(C)c1ccccc1-c1ncc2[nH]c(=O)n([C@H](C)c3ccccc3)c2n1 [Compound I-155, (R)-2-(2-isopropylphenyl)-9-(1-phenylethyl)-7,9-dihydro-8H-purin-8-one]",50 to 200 nM
13,"Cc1cc(C(F)F)nn1-c1ccc(Cn2c(=O)[nH]c3cnc(-c4cccnc4C(C)C)nc32)cc1 [Compound I-58, 9-(4-(3-(difluoromethyl)-5-methyl-1H-pyrazol-1-yl)benzyl)-2-(2-isopropylpyridin-3-yl)-7,9-dihydro-8H-purin-8-one]",< 50 nM
14,"Cc1cc(C)n(-c2ccc(Cn3c(=O)[nH]c4cnc(-c5ccccc5C(C)C)nc43)cc2)n1 [Compound I-1, 9-(4-(3,5-Dimethyl-1H-pyrazol-1-yl)benzyl)-2-(2-isopropylphenyl)-7,9-dihydro-8H-purin-8-one]",< 50 nM
15,"COc1ccc(-c2cn(-c3ccc(Cn4c(=O)[nH]c5cnc(-c6ccccc6C(C)C)nc54)cc3)nn2)cc1 [Compound I-341, 2-(2-isopropylphenyl)-9-(4-(4-(4-methoxyphenyl)-1H-1,2,3-triazol-1-yl)benzyl)-7,9-dihydro-8H-purin-8-one]",200 to 2000 nM
16,"Cc1cc(C#N)n(-c2ccc(Cn3c(=O)[nH]c4cnc(-c5ccccc5C(C)C)nc43)cc2)n1 [Compound I-208, 1-(4-((2-(2-isopropylphenyl)-8-oxo-7,8-dihydro-9H-purin-9-yl)methyl)phenyl)-3-methyl-1H-pyrazole-5-carbonitrile]",< 50 nM
